Columns and labels:
cocci, rods and fungi = details: Pernak et al., 226th ACS National Meeting 2003; cited from earlier work
Penicillium funiculosum = assay: Fungicidal activity according to EN12175; assay type: cell-based; details: spores about 10^6 cfu/ml, vs water control
Protocol: (§1) Fungicidal activity is tested according to EN12175. A fungal spore suspension with a spore cell count of about 10^6 cfu/ml is contacted with appropriate concentrations of the specific substances and the residual spore cell count determined after incubation times of 30 and 60 minutes at room temperature under continuous stirring. Penicillium funiculosum, Aspergillus niger and Aureobasidium pullulans are tested as important mold strains. The results are given as a log reduction at each incubation time in comparison to a water control.

Aureobasidium pullulans = assay: Fungicidal activity according to EN12175; assay type: cell-based; details: spores about 10^6 cfu/ml, vs water control
Protocol: as §1

Aspergillus niger = assay: Fungicidal activity according to EN12175; assay type: cell-based; details: spores about 10^6 cfu/ml, vs water control
Protocol: as §1

Staphylococcus aureus = assay: Microbicidal activity according to EN1040; assay type: cell-based; details: 1000 ppm, room temperature, vs growth control in water
Protocol: (§2) A bacterial suspension with a cell count of about 10^7 cfu/ml is contacted with appropriate concentrations of the specific substances and the residual cell count determined after incubation times of 5 and 30 minutes at room temperature under continuous stirring. Staphylococcus aureus was tested as gram+ and Escherichia coli as gram− organism. The results are given as a log reduction in comparison to a growth control in water.

Escherichia coli = assay: Microbicidal activity according to EN1040; assay type: cell-based; details: 1000 ppm, room temperature, vs growth control in water
Protocol: as §2

C. albicans = assay: Preservative challenge test in cosmetic emulsions (EurPh and USP); assay type: cell-based; details: 0.5% w/w
Protocol: (§3) A preservative challenge test is conducted for representative cosmetic formulations according to the conditions of the EurPh and USP. The compound concentration in the formulations is 0.5% w/w. The Inoculum concentration of the five different strains is 2.1-4.2×10^5 cfu/ml, incubation time according to EurPh. 2, 7, 14 and 28 days. Preservation is investigated in two different emulsion types, w/o and o/w.

A. niger = assay: as above; assay type: cell-based; details: 0.5% w/w
Protocol: as §3

E. coli = assay: as above; assay type: cell-based; details: 0.5% w/w
Protocol: as §3

P. aerug. = assay: as above; assay type: cell-based; details: 0.5% w/w
Protocol: as §3

S. aureus = assay: as above; assay type: cell-based; details: 0.5% w/w
Protocol: as §3

S. aureus ATCC 6538 = assay: Microbicidal activity under conditions similar to a preservative challenge test; assay type: cell-based; details: 0.5%, inoculum 10^5 cfu/ml
Protocol: as §2
(§4) The test procedure of Example 7 is used, with an inoculum concentration of 10^5 cfu/ml and incubation times of 48 and 72 hours; figures given as log reduction.

C. albicans ATCC 10231 = assay: as above; assay type: cell-based; details: 0.5%, inoculum 10^5 cfu/ml
Protocol: as §2, §4

A. niger ATCC 16404 = assay: as above; assay type: cell-based; details: 0.5%, inoculum 10^5 cfu/ml
Protocol: as §2, §4

E. coli ATCC 10536 = assay: as above; assay type: cell-based; details: 0.5%, inoculum 10^5 cfu/ml
Protocol: as §2, §4

P. aeruginosa ATCC 15442 = assay: as above; assay type: cell-based; details: 0.5%, inoculum 10^5 cfu/ml
Protocol: as §2, §4

CCCCCCCCOC[n+]1ccn(C)c1.F[B-](F)(F)F [1-methyl-3-octyloxymethylimidazolium tetrafluoroborate]
effectiveness against cocci, rods and fungi (cocci, rods and fungi): the most effective of the ionic liquids tested

CCCCCCCCOC(=O)C[n+]1ccn(C)c1.[Br-] [Ex 2, 1-methyl-3-(2-oxo-2-octyloxyethyl)-1H-Imidazolium bromide]
log reduction P. funiculosum 30 min (Penicillium funiculosum; 1%, 30 min): <1 log
log reduction P. funiculosum 1 h (Penicillium funiculosum; 1 h): <1 log
log reduction A. pullulans 30 min (Aureobasidium pullulans; 1%, 30 min): >4 log
log reduction A. pullulans 1 h (Aureobasidium pullulans; 1 h): >4 log
log reduction A. niger 30 min (Aspergillus niger; 1%, 30 min): <1 log
log reduction A. niger 1 h (Aspergillus niger; 1 h): 2.0 log
log reduction S. aureus 5 min. (Staphylococcus aureus; 5 min): 3.2 log
log reduction S. aureus 30 min. (Staphylococcus aureus; 30 min): 3.7 log
log reduction E. coli 5 min. (Escherichia coli; 5 min): <1 log
log reduction E. coli 30 min. (Escherichia coli; 30 min): 1.2 log
Log Reduction C. albicans (C. albicans; O/W emulsion, 2 days): 0 log
Log Reduction C. albicans (C. albicans; O/W emulsion, 7 days): 2 log
Log Reduction C. albicans (C. albicans; O/W emulsion, 14 days): ≧3 log
Log Reduction C. albicans (C. albicans; O/W emulsion, 28 days): 5 log
Log Reduction C. albicans (C. albicans; W/O emulsion, 2 days): 1 log
Log Reduction C. albicans (C. albicans; W/O emulsion, 7 days): ≧3 log
Log Reduction C. albicans (C. albicans; W/O emulsion, 14 days): 5 log
Log Reduction C. albicans (C. albicans; W/O emulsion, 28 days): 5 log
Log Reduction A. niger (A. niger; O/W emulsion, 2 days): 0 log
Log Reduction A. niger (A. niger; O/W emulsion, 7 days): 0 log
Log Reduction A. niger (A. niger; O/W emulsion, 14 days): 0 log
Log Reduction A. niger (A. niger; O/W emulsion, 28 days): 0 log
Log Reduction A. niger (A. niger; W/O emulsion, 2 days): 0 log
Log Reduction A. niger (A. niger; W/O emulsion, 7 days): 0 log
Log Reduction A. niger (A. niger; W/O emulsion, 14 days): 0 log
Log Reduction A. niger (A. niger; W/O emulsion, 28 days): 0 log
Log Reduction E. coli (E. coli; O/W emulsion, 2 days): 3 log
Log Reduction E. coli (E. coli; O/W emulsion, 7 days): ≧4 log
Log Reduction E. coli (E. coli; O/W emulsion, 14 days): 6 log
Log Reduction E. coli (E. coli; O/W emulsion, 28 days): 6 log
Log Reduction E. coli (E. coli; W/O emulsion, 2 days): 6 log
Log Reduction E. coli (E. coli; W/O emulsion, 7 days): 6 log
Log Reduction E. coli (E. coli; W/O emulsion, 14 days): 6 log
Log Reduction E. coli (E. coli; W/O emulsion, 28 days): 6 log
Log Reduction P. aerug. (P. aerug.; O/W emulsion, 2 days): ≧4 log
Log Reduction P. aerug. (P. aerug.; O/W emulsion, 7 days): 5 log
Log Reduction P. aerug. (P. aerug.; O/W emulsion, 14 days): 5 log
Log Reduction P. aerug. (P. aerug.; O/W emulsion, 28 days): 5 log
Log Reduction P. aerug. (P. aerug.; W/O emulsion, 2 days): 5 log
Log Reduction P. aerug. (P. aerug.; W/O emulsion, 7 days): 5 log
Log Reduction P. aerug. (P. aerug.; W/O emulsion, 14 days): 5 log
Log Reduction P. aerug. (P. aerug.; W/O emulsion, 28 days): 5 log
Log Reduction S. aureus (S. aureus; O/W emulsion, 2 days): ≧4 log
Log Reduction S. aureus (S. aureus; O/W emulsion, 7 days): 6 log
Log Reduction S. aureus (S. aureus; O/W emulsion, 14 days): 6 log
Log Reduction S. aureus (S. aureus; O/W emulsion, 28 days): 6 log
Log Reduction S. aureus (S. aureus; W/O emulsion, 2 days): 6 log
Log Reduction S. aureus (S. aureus; W/O emulsion, 7 days): 6 log
Log Reduction S. aureus (S. aureus; W/O emulsion, 14 days): 6 log
Log Reduction S. aureus (S. aureus; W/O emulsion, 28 days): 6 log
log reduction S. aureus ATCC 6538 48 h (S. aureus ATCC 6538; 48 h): >3 log
log reduction S. aureus ATCC 6538 72 h (S. aureus ATCC 6538; 72 h): >3 log
log reduction C. albicans ATCC 10231 48 h (C. albicans ATCC 10231; 48 h): >3 log
log reduction C. albicans ATCC 10231 72 h (C. albicans ATCC 10231; 72 h): >3 log
log reduction A. niger ATCC 16404 48 h (A. niger ATCC 16404; 48 h): 1.8 log
log reduction A. niger ATCC 16404 72 h (A. niger ATCC 16404; 72 h): 2.3 log
log reduction E. coli ATCC 10536 48 h (E. coli ATCC 10536; 48 h): >3 log
log reduction E. coli ATCC 10536 72 h (E. coli ATCC 10536; 72 h): >3 log
log reduction P. aeruginosa ATCC 15442 48 h (P. aeruginosa ATCC 15442; 48 h): >3 log
log reduction P. aeruginosa ATCC 15442 72 h (P. aeruginosa ATCC 15442; 72 h): >3 log

Reference: patent US8232305B2, “Anti-microbial compositions” (BASF SE, priority 2006, dated 2012)
